The text below walks through data of US20250230193A1, “CYCLIC COMPOUND HAVING SELECTIVE KRAS INHIBITORY EFFECT ON HRAS AND NRAS” (CHUGAI SEIYAKU KABUSHIKI KAISHA, priority 2022, published 2025).

Where a SMILES comes first, the peptide text is derived from it. Bridges are numbered along the chain shown (N, C = ends). [ ]: non-standard residue; d: D form. The star is where a group is joined. hPhe(3-Cl-4-CF3) = N[C@@H](CCc1ccc(C(F)(F)F)c(Cl)c1)C(=O)O; NPrPhe(4-CF3) = CCCN[C@@H](Cc1ccc(C(F)(F)F)cc1)C(=O)O; NEtPhe(4-Me) = CCN[C@@H](Cc1ccc(C)cc1)C(=O)O; NMeGly(cPent) = CN[C@H](C(=O)O)C1CCCC1; Pro(4,4-F2) = O=C(O)[C@@H]1CC(F)(F)CN1; NMeD = CN[C@@H](CC(=O)O)C(=O)O; NMeL = CN[C@@H](CC(C)C)C(=O)O; Morpholide = C1CN(*)CCO1; NMeA = CN[C@@H](C)C(=O)O; NMeAib = CNC(C)(C)C(=O)O; Nle = CCCC[C@H](N)C(=O)O; Piperidide = C1CCN(*)CC1; Ac5c = NC1(C(=O)O)CCCC1; Aze = O=C(O)[C@@H]1CCN1; Sar = CNCC(=O)O

The target of assay [1] is GDP-bound NRAS wild-type protein (Homo sapiens, UniProt P01111). The experiment in a line: Binding to NRAS by surface plasmon resonance (SPR), Single Cycle Kinetics. On the technique in general: In SPR one partner is held on a chip, and binding of the other changes the refractive index at the surface.
Chain of GDP-bound NRAS wild-type protein (P01111 whole entry): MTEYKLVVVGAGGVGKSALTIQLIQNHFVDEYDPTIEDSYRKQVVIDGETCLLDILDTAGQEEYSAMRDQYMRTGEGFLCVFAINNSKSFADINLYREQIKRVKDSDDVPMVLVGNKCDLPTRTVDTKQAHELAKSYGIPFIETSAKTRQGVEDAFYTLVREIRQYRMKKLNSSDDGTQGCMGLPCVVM
Assay [2] addresses GDP-bound HRAS wild-type protein (Homo sapiens, UniProt P01112). In words: Binding to HRAS by surface plasmon resonance (SPR), Single Cycle Kinetics.
Setting [3] is: SPR, GDP-bound NRAS wild-type vs GDP-bound KRAS wild-type.
[4] abbreviates: SPR, GDP-bound HRAS wild-type vs GDP-bound KRAS wild-type.
The mark [5] stands for this setting: KD ratio, GDP-bound NRAS wild-type vs GDP-bound KRAS wild-type, SPR.
The mark [6] stands for this setting: KD ratio, GDP-bound HRAS wild-type vs GDP-bound KRAS wild-type, SPR.

Chain of GDP-bound HRAS wild-type protein (P01112 whole entry): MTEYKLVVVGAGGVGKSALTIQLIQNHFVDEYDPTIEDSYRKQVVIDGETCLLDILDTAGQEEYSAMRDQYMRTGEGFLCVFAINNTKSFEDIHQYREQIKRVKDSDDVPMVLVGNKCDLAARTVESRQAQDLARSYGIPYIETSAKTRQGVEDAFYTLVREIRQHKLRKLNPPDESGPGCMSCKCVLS

For `CCCC[C@H]1C(=O)N[C@@H]([C@@H](C)CC)C(=O)N(C)CC(=O)N(C)[C@H]2C/C=C\CCN(C2=O)[C@@H](Cc2ccc(C)cc2)C(=O)N(C)CC(=O)N[C@@H](CCc2cc(F)c(C(F)(F)F)c(F)c2)C(=O)N2C[C@H](OCC)C[C@H]2C(=O)NC2(CCC2)C(=O)N(C)[C@@H](C2CCCC2)C(=O)N(C)[C@H](C(=O)N(C)C)CC(=O)N1C` [PP2798], in assay [1] (class symbols), the “NRAS/KRAS (ratio of KD value with respect to GDP-bound NRAS wild-type protein to KD value with respect to KRAS)” value is “A (a compound having 10 or more and less than 20 is denoted as A)”. Besides, in assay [2] (class symbols), the “HRAS/KRAS (ratio of KD value with respect to GDP-bound HRAS wild-type protein to KD value with respect to KRAS)” value was “A (a compound having 10 or more and less than 20 is denoted as A)”.

As to `CCC[C@H]1C(=O)N[C@@H]([C@@H](C)CC)C(=O)N(C)CC(=O)N(C)[C@H]2C/C=C\CCN(C2=O)[C@@H](Cc2ccc(C)cc2)C(=O)N(C)CC(=O)N[C@@H](CCc2ccc(C(F)(F)F)c(Cl)c2)C(=O)N2C[C@H](CC)C[C@H]2C(=O)NC2(CC(C)(C)C2)C(=O)N(C)[C@@H](C2CCCC2)C(=O)N(C)[C@H](C(=O)N(C)C)CC(=O)N1C` [PP2212], the “NRAS/KRAS (ratio of KD value with respect to NRAS to KD value with respect to KRAS)” value in assay [1] (setting [3]) is “A (a compound having 10 or more and less than 20 is denoted as A)”. In addition, the “HRAS/KRAS (ratio of KD value with respect to HRAS to KD value with respect to KRAS)” value in assay [2] (setting [4]) was “B (a compound having 3 or more and less than 10 is denoted as B)”.

Regarding `CCCN1C(=O)CN(C)C(=O)CNC(=O)[C@H]([C@@H](C)CC)NC(=O)[C@H](CC(C)C)N(C)C(=O)C[C@@H](C(=O)N(C)C)N(C)C(=O)[C@H](C2CCCC2)N(C)C(=O)C2(CCCC2)NC(=O)[C@@H]2CC(F)(F)CN2C(=O)[C@H](CCc2ccc(C(F)(F)F)c(Cl)c2)NC(=O)CN(C)C(=O)[C@@H]1Cc1ccc(C(F)(F)F)cc1` [PP0419] ([NMeL]IG[Sar][NPrPhe(4-CF3)][Sar][hPhe(3-Cl-4-CF3)][Pro(4,4-F2)][Ac5c][NMeGly(cPent)][NMeD]-NMe2; lactam N-11), the “NRAS/KRAS (ratio of KD value with respect to GDP-bound NRAS wild-type protein to KD value with respect to KRAS)” value in assay [1] (SPR) was “B (a compound having 3 or more and less than 10 is denoted as B)”. Besides, the “HRAS/KRAS (ratio of KD value with respect to GDP-bound HRAS wild-type protein to KD value with respect to KRAS)” value in assay [2] (SPR) was “C (A compound having a KD ratio of 0.1 or more and less than 3 is denoted as C)”.

`CCCC[C@@H]1NC(=O)[C@H](CCc2ccc(C(F)(F)F)c(Cl)c2)NC(=O)CN(C)C(=O)[C@H](Cc2ccc(C)cc2)N(CC)C(=O)[C@@H]2CCN2C(=O)[C@H](C)N(C)C(=O)[C@H]([C@@H](C)CC)NC(=O)[C@H](CC(C)C)N(C)C(=O)C[C@@H](C(=O)N2CCCCC2)N(C)C(=O)[C@H](CC(C)C)NC(=O)C(C)(C)N(C)C1=O` [PP0048] ([NMeL]I[NMeA][Aze][NEtPhe(4-Me)][Sar][hPhe(3-Cl-4-CF3)][Nle][NMeAib]L[NMeD]-Piperidide; lactam N-11): in assay [1] (SPR), the “NRAS/KRAS (ratio of KD for GDP-bound NRAS wild-type to KD for KRAS)” value was “C (A compound having a KD ratio of 0.1 or more and less than 3 is denoted as C)”. For the same molecule, the “HRAS/KRAS (ratio of KD for GDP-bound HRAS wild-type to KD for KRAS)” value in assay [2] (SPR) was “C (A compound having a KD ratio of 0.1 or more and less than 3 is denoted as C)”.

Take `CCO[C@@H]1C[C@H]2C(=O)NC3(CCC3)C(=O)N(C)[C@@H](C3CCCC3)C(=O)N(C)[C@H](C(=O)N(C)CCOC)CC(=O)N(C)[C@@H](CC3CC3)C(=O)N[C@@H]([C@@H](C)CC)C(=O)N(C)CC(=O)N(C)[C@H]3C/C=C\CCN(C3=O)[C@@H](Cc3ccc(C(F)(F)F)cc3)C(=O)N(C)CC(=O)N[C@@H](CCc3ccc(C(F)(F)F)c(OC)c3)C(=O)N2C1` [PP1327]: in assay [1] (SPR, KD ratio class), the “NRAS/KRAS (ratio of KD value for GDP-bound NRAS wild-type protein to KD value for KRAS)” value is “A (a compound having 10 or more and less than 20 is denoted as A)”. For the same molecule, the “HRAS/KRAS (ratio of KD value for GDP-bound HRAS wild-type protein to KD value for KRAS)” value in assay [2] (SPR, KD ratio class) was “A (a compound having 10 or more and less than 20 is denoted as A)”.

Take `CCCOC[C@H]1C(=O)N[C@@H]([C@@H](C)CC)C(=O)N(C)CC(=O)N(C)[C@H]2C/C=C\CCN(C2=O)[C@@H](CC2CCC(F)(F)CC2)C(=O)N(C)CC(=O)N[C@@H](CCc2ccc(C(F)(F)F)c(OC)c2)C(=O)N2C[C@@H](C)C[C@H]2C(=O)NC2(CC(C)(C)C2)C(=O)N(C)[C@@H](C(CC)CC)C(=O)N(C)[C@H](C(=O)N(C)C)CC(=O)N1C` [PP2483]: the “NRAS/KRAS (ratio of KD value with respect to NRAS to KD value with respect to KRAS)” value in assay [1] (setting [3]) is “A (a compound having 10 or more and less than 20 is denoted as A)”. For the same molecule, the “HRAS/KRAS (ratio of KD value with respect to HRAS to KD value with respect to KRAS)” value in assay [2] (setting [4]) was “A (a compound having 10 or more and less than 20 is denoted as A)”.

In the case of `CCC[C@H]1C(=O)N[C@@H]([C@@H](C)CC)C(=O)N(C2CC2)CC(=O)N(C)[C@H]2C/C=C\CCN(C2=O)[C@@H](Cc2ccc(C)cc2)C(=O)N(C)CC(=O)N[C@@H](CCc2ccc(Cl)c(Cl)c2)C(=O)N2C[C@H](OC(C)C)C[C@H]2C(=O)NC2(CC(C)(C)C2)C(=O)N(C)[C@@H](C2CCCC2)C(=O)N(C)[C@H](C(=O)N(C)C)CC(=O)N1C` [PP2571], the “NRAS/KRAS (ratio of KD value with respect to GDP-bound NRAS wild-type protein to KD value with respect to KRAS)” value in assay [1] (class symbols) is “A (a compound having 10 or more and less than 20 is denoted as A)”. In assay [2] (class symbols), the “HRAS/KRAS (ratio of KD value with respect to GDP-bound HRAS wild-type protein to KD value with respect to KRAS)” value is “A (a compound having 10 or more and less than 20 is denoted as A)”.

As for `CCCN1C(=O)CN(C)C(=O)[C@@H]2CCN2C(=O)[C@H]([C@@H](C)CC)NC(=O)[C@H](CC(C)C)N(C)C(=O)C[C@@H](C(=O)N2CCOCC2)NC(=O)[C@H](C2CCCC2)N(C)C(=O)C2(CCCC2)NC(=O)[C@@H]2CC(F)(F)CN2C(=O)[C@H](CCc2ccc(C(F)(F)F)c(Cl)c2)NC(=O)CN(C)C(=O)[C@@H]1Cc1ccc(C(F)(F)F)cc1` [PP0339] ([NMeL]I[Aze][Sar][NPrPhe(4-CF3)][Sar][hPhe(3-Cl-4-CF3)][Pro(4,4-F2)][Ac5c][NMeGly(cPent)]D-Morpholide; lactam N-11), the “NRAS/KRAS (ratio of KD for GDP-bound NRAS wild-type to KD for KRAS)” value in assay [1] (SPR) is “B (a compound having 3 or more and less than 10 is denoted as B)”. The “HRAS/KRAS (ratio of KD for GDP-bound HRAS wild-type to KD for KRAS)” value in assay [2] (SPR) is “B (a compound having 3 or more and less than 10 is denoted as B)”.

With `CCO[C@@H]1C[C@H]2C(=O)NC3(CCC3)C(=O)N(C)[C@@H](C3CCCC3)C(=O)N(C)[C@H](C(=O)N3CCOCC3)CC(=O)N(C)[C@@H](CC3CC3)C(=O)N[C@@H]([C@@H](C)CC)C(=O)N(C)CC(=O)N(C)[C@H]3CCCCCN(C3=O)[C@@H](Cc3ccc(F)cc3)C(=O)N(C)CC(=O)N[C@@H](CCc3cc(F)c(C(F)(F)F)c(F)c3)C(=O)N2C1` [PP1178], in assay [1] (setting [5]), the “NRAS/KRAS (ratio of KD value with respect to NRAS to KD value with respect to KRAS)” value was “B (a compound having 3 or more and less than 10 is denoted as B)”. Besides, in assay [2] (setting [6]), the “HRAS/KRAS (ratio of KD value with respect to HRAS to KD value with respect to KRAS)” value is “B (a compound having 3 or more and less than 10 is denoted as B)”.

For `CCO[C@@H]1C[C@H]2C(=O)NC3(CC(C)(C)C3)C(=O)N(C)[C@@H](C3CCCC3)C(=O)N(C)[C@H](C(=O)N(C)C)CC(=O)N(C)[C@@H](CC3CCC3)C(=O)N[C@@H]([C@@H](C)CC)C(=O)N(C)CC(=O)N(C)[C@H]3C/C=C\CCN(C3=O)[C@@H](Cc3ccc(C(F)(F)F)cc3)C(=O)N(C)CC(=O)N[C@@H](CCc3cc(F)c(Cl)c(F)c3)C(=O)N2C1` [PP1762], the “NRAS/KRAS (ratio of KD value for NRAS to KD value for KRAS)” value in assay [1] (setting [5]) was “A (a compound having 10 or more and less than 20 is denoted as A)”. In addition, the “HRAS/KRAS (ratio of KD value for HRAS to KD value for KRAS)” value in assay [2] (setting [6]) was “A (a compound having 10 or more and less than 20 is denoted as A)”.
